± gives the expanded uncertainty stated by the source.
Columns and labels:
[1] = 101 kPa, Liquid; for viscosity: Capillary tube (Ostwald / Ubbelohde) method; for mass density: Pycnometric method
[2] = refractive index (Na D-line) (dimensionless); settings: 298.15 K; 101.33 kPa; Liquid; Standard Abbe refractometry
[3] = xn = mol fraction of the nth substance listed; settings: 101 kPa, Liquid, x2 = 0; for viscosity: Capillary tube (Ostwald / Ubbelohde) method; for mass density: Pycnometric method

SMILES | viscosity ([1]; 298.15 K) [mPa·s] | mass density ([1]; 298.15 K) [kg/m3] | viscosity ([1]; 303.15 K) [mPa·s] | mass density ([1]; 303.15 K) [kg/m3] | viscosity ([1]; 308.15 K) [mPa·s] | mass density ([1]; 308.15 K) [kg/m3] | refractive index [2] | viscosity ([3]; 298.15 K) [mPa·s] | mass density ([3]; 298.15 K) [kg/m3] | viscosity ([3]; 303.15 K) [mPa·s] | mass density ([3]; 303.15 K) [kg/m3] | viscosity ([3]; 308.15 K) [mPa·s] | mass density ([3]; 308.15 K) [kg/m3]
CC1OC(C)OC(C)O1 (stereo not given) [2,4,6-trimethyl-1,3,5-trioxane] | 1.107 ± 0.015 | 988.4 ± 1.3 | 1.001 ± 0.014 | 982.6 ± 1.3 | 0.907 ± 0.013 | 976.4 ± 1.4 | – | – | – | – | – | – | –
CCCCOC(C)=O [butyl ethanoate] | 0.685 ± 0.01 | 876.4 ± 1.1 | 0.636 ± 0.01 | 871.3 ± 1.1 | 0.579 ± 0.009 | 866.2 ± 1.1 | 1.3918 ± 0.0009 | – | – | – | – | – | –
CCCCOC(C)=O [butyl ethanoate] + CC1OC(C)OC(C)O1 | – | – | – | – | – | – | – | 0.685 ± 0.01 | 876.4 ± 1.1 | 0.636 ± 0.01 | 871.3 ± 1.1 | 0.579 ± 0.009 | 866.2 ± 1.1
CCOC(C)=O [ethyl acetate] | 0.43 ± 0.008 | 893.8 ± 1.2 | 0.401 ± 0.008 | 887.6 ± 1.2 | 0.387 ± 0.008 | 881.2 ± 1.2 | 1.37 ± 0.0009 | – | – | – | – | – | –
CCOC(C)=O [ethyl acetate] + CC1OC(C)OC(C)O1 | – | – | – | – | – | – | – | 0.43 ± 0.008 | 893.8 ± 1.2 | 0.401 ± 0.008 | 887.6 ± 1.2 | 0.387 ± 0.008 | 881.2 ± 1.2
COC(C)=O [methyl ethanoate] | 0.367 ± 0.008 | 926.7 ± 1.3 | 0.351 ± 0.007 | 919.7 ± 1.2 | 0.338 ± 0.007 | 916.2 ± 1 | 1.3585 ± 0.0009 | – | – | – | – | – | –
COC(C)=O [methyl ethanoate] + CC1OC(C)OC(C)O1 | – | – | – | – | – | – | – | 0.367 ± 0.008 | 926.7 ± 1.3 | 0.351 ± 0.007 | 919.7 ± 1.2 | 0.338 ± 0.007 | 916.2 ± 1

Source: the NIST ThermoML archive (doi:10.1016/j.jct.2006.03.014)
